In publication PMC11676762, “Control of Postharvest Green Mold in Citrus by the Antimicrobial Peptide BP15 and Its Lipopeptides” (Journal of Fungi, 2024):
Converted amounts (≈) assume the structure as drawn. “And” between values parts separate entries of the source, which are not always exact repeats. Equal entries are not always repeated. Where two headings read alike, the source gives them in different places. Marks after values point to notes of the source that are not given here.

How the values were obtained:
[1] = tested on: sheep red blood cells; conditions: test range, significantly lower than commercial prochloraz (p < 0.05), results not yet published
[2] = tested on: P. digitatum; conditions: for MFC: 50 μL from mycelium-free well plated on PDA, no pathogen growth; for MFC / MIC: 25 °C; for MIC: lowest peptide concentration completely inhibiting growth for 48 h, spores 1 × 10^4 CFU/mL, 5% PDB, triplicate
Protocol: The experiment was adapted from the method of Jia et al.. A 180 μL spore suspension (1 × 10^4 CFU/mL), containing 5% potato dextrose broth (PDB) by volume, was mixed with 20 μL of peptide solution in a sterile 96-well microplate and thoroughly mixed. The final peptide concentrations were 0.78, 1.56, 3.12, 6.25, 12.5, 25, 50, and 100 μM, with sterile water as the control. The mixtures were cultured in an incubator at 25 °C for 48 h, and the light absorption at OD600nm was measured using an 800TS full-wavelength microplate reader (Bio Tek Instruments, Inc., Winooski, VT, USA). The minimum inhibitory concentration (MIC) was defined as the lowest peptide concentration completely inhibiting fungus growth for 48 h. Then, a 50 μL sample from the mycelium-free well was plated on PDA and left to culture at 25 °C for 48 h. The minimum fungicidal concentration (MFC) was the peptide concentration at which there was no pathogen growth after 48 h.

[3] = tested on: P. digitatum mycelia; test: Mycelial survival assay (MTT); assay type: cell-based, Penicillium digitatum; conditions: 100 μM peptide, 3 h at 25 °C, then MTT 16 h; mean of triplicate
Protocol: The mycelial survival rate was determined according to by Weerden et al.. A spore suspension (5 × 10^4 CFU/mL) was prepared with 5% PDB and incubated for 24 h at 25 °C. […] The mixtures were cultured at 25 °C for 3 h before the addition of 10 μL of 3-(4,5-dimethylthiazol-2-yl)-2,5-diphenyltetrazolium bromide (MTT; 5 mg/mL; MACKLIN). The plates were then incubated in a dark environment for 16 h, followed by the addition of DMSO (100 μL).

[4] = tested on: P. digitatum genomic DNA; test: DNA binding gel retardation assay; design: species or system Penicillium digitatum; conditions: peptide:DNA 1:1 (v/v), room temperature 30 min, 1% agarose gel
Protocol: In accordance with Miao et al. with slight adjustments, the gel retardation effect was analyzed. The P. digitatum DNA was extracted according to the operation steps of the TIANGEN plant genome DNA extraction kit. The agarose gel electrophoresis utilized a 1% agarose concentration. […] Electrophoresis was run at 110 V for 25 min, followed by the removal of the rubber plate and placement in the Tanon-2500B (Tanon Science and Technology Co., Ltd., Shanghai, China) for visualization.

[5] = tested on: P. digitatum; test: Fruit decay test, green mold on mandarins; assay type: in vivo, Penicillium digitatum; conditions: mean ± SD
Text: This experiment followed the method of Zhou et al. with some adjustments. The effects of three peptides on the control of green mold in citrus in vivo were studied by measuring the incidence rate and spot diameters on the citrus fruit. Mandarins were purchased from a local supermarket and selected for uniform size, ripeness, and a lack of mechanical damage. The mandarins were soaked in 75% alcohol for 30 s and then in 1% NaClO for 30 s, followed by rinsing with sterile water and drying with sterile paper to remove excess surface water. A sterile needle was used to drill holes near the equator (about 3 mm deep), and each mandarin was inoculated with 10 µL of 100 μM concentrations of three peptide solutions and 1 × 10^5 CFU/mL P. digitatum suspension (v/v 1:1), compared with a mixture of equal parts sterile water and P. digitatum suspension. The mandarins were placed in a […] container with sterile wet paper towels in order to preserve their freshness. A humid environment was maintained in the container, and the fruit was stored at room temperature. The incidence rate and spot diameter of the mandarins were measured in accordance with the method of Zhang et al.. Each treatment group contained eight fruits, and each treatment was repeated three times.

[6] = tested on: P. digitatum mycelia; test: Sytox Green fluorescence microscopy (membrane permeability); assay type: cell-based, Penicillium digitatum; conditions: 2 h, Sytox Green 0.2 μM
Protocol: The experiment protocol was adapted from Li et al.. A spore suspension (10^5 CFU/mL) of 90 μL was prepared with 5% PDB and incubated for 24 h at 25 °C. Subsequently, the peptide solution was added to final concentrations of the MIC, the MFC, and 100 μM, and the mixtures were left for 2 h, with sterile water as the control. After incubation, Sytox Green (Molecular Probes; KeyGen Biotech Co., Nanjing, China) was added at 4 μM and thte final concentration was 0.2 μM and was incubated for 5 min in the dark. The treated samples were washed with sterile water, resuspended in 20% glycerol solution, and prepared and observed under a DM3000 fluorescence microscope (Leica, Weztlar, Germany).

[7] = tested on: P. digitatum; conditions: against P. digitatum; cited from earlier work
Text: Conidia generated by P. digitatum are disseminated to the surface of fruits via wind, rain, soil dust, and other media. Upon landing on the surface or wound of the fruit, these conidia promptly germinate, leading to fruit decay. […] In the present s ...

[8] = 5 d, 100 μM peptide + spores (1:1), three replicates
[9] = 6 d, 100 μM peptide + spores (1:1), three replicates
[10] = 7 d, 100 μM peptide + spores (1:1), three replicates
[11] = 8 d, 100 μM peptide + spores (1:1), three replicates
[12] = 9 d, 100 μM peptide + spores (1:1), three replicates
[13] = 10 d, 100 μM peptide + spores (1:1), three replicates

| Compound | hemolytic activity [1] | MFC ([2]; 48 h) [µM] | MIC ([2]; OD600nm) [µM] | mycelial survival rate [3] [%] | peptide concentration at which DNA bands were no longer visible [4] [µM] | Spot Diameter [5, 8] | Incidence Rate [5, 9] | Spot Diameter [5, 9] | Incidence Rate [5, 10] | Spot Diameter [5, 10] | Incidence Rate [5, 11] | Spot Diameter [5, 11] | Incidence Rate [5, 12] | Spot Diameter [5, 12] | Incidence Rate [5, 13] | Spot Diameter [5, 13] | SG fluorescence in mycelia ([6]; peptide at 100 μM) | SG fluorescence in mycelia ([6]; peptide at 2 MIC) | SG fluorescence in mycelia ([6]; peptide at MIC) | also measured |
| --- | --- | --- | --- | --- | --- | --- | --- | --- | --- | --- | --- | --- | --- | --- | --- | --- | --- | --- | --- | --- |
| CC[C@H](C)[C@H](NC(=O)[C@H](CCCCN)NC(=O)[C@H](CCCCN)NC(=O)[C@H](Cc1ccccc1)NC(=O)[C@H](CC(C)C)NC(=O)[C@H](CCCCN)NC(=O)[C@@H](N)CCCCN)C(=O)N[C@@H](CC(C)C)C(=O)N[C@@H](CCCCN)C(=O)N[C@H](C(=O)N[C@@H](CC(C)C)C(N)=O)C(C)C [BP15] | low hemolysis | 6.25 (≈ 8.48 µg/mL) | 3.12 (≈ 4.23 µg/mL) |  |  |  |  |  |  |  |  |  |  |  |  |  |  |  |  |  |
| CCCCCC(=O)N[C@@H](CCCCN)C(=O)N[C@@H](CCCCN)C(=O)N[C@@H](CC(C)C)C(=O)N[C@@H](Cc1ccccc1)C(=O)N[C@@H](CCCCN)C(=O)N[C@@H](CCCCN)C(=O)N[C@H](C(=O)N[C@@H](CC(C)C)C(=O)N[C@@H](CCCCN)C(=O)N[C@H](C(=O)N[C@@H](CC(C)C)C(N)=O)C(C)C)[C@@H](C)CC [HBP15] | low hemolysis | 6.25 (≈ 9.09 µg/mL) | 3.12 (≈ 4.54 µg/mL) | 16.31 | 25 | 1.41 ± 0.80 ^c mm | 20.83 ± 7.22 ^c % | 4.45 ± 0.80 ^c mm | 37.50 ± 0.00 ^c % | 9.76 ± 0.84 ^c mm | 37.50 ± 0.00 ^c % | 14.81 ± 1.19 ^c mm | 37.50 ± 0.00 ^c % | 19.72 ± 1.95 ^c mm | 41.67 ± 7.22 ^b % | 23.27 ± 3.61 ^c mm | extensive continuous green fluorescence | enhanced fluorescence intensity and continuity | no fluorescence | Incidence Rate ([5]; 5 d, 10 µL of 100 μM peptide + 1 × 10^5 CFU/mL spores (1:1), room temperature, three replicates of eight fruits): 12.50 ± 0.00 ^c % |
| CCCCCCCCCCCC(=O)N[C@@H](CCCCN)C(=O)N[C@@H](CCCCN)C(=O)N[C@@H](CC(C)C)C(=O)N[C@@H](Cc1ccccc1)C(=O)N[C@@H](CCCCN)C(=O)N[C@@H](CCCCN)C(=O)N[C@H](C(=O)N[C@@H](CC(C)C)C(=O)N[C@@H](CCCCN)C(=O)N[C@H](C(=O)N[C@@H](CC(C)C)C(N)=O)C(C)C)[C@@H](C)CC [LBP15] | low hemolysis | 6.25 (≈ 9.62 µg/mL) | 3.12 (≈ 4.8 µg/mL) | 10.40 | 50 | 10.80 ± 4.93 ^b mm | 70.83 ± 19.09 ^b % | 21.23 ± 4.46 ^b mm | 80.83 ± 11.54 ^b % | 34.00 ± 10.39 ^b mm | 80.83 ± 11.54 ^b % | 45.60 ± 13.19 ^b mm | 80.83 ± 11.54 ^b % | 54.08 ± 12.44 ^b mm | 87.50% and 87.50 ± 0.00 ^a % | 69.6 ± 8.37 ^b mm | extensive continuous green fluorescence | enhanced fluorescence intensity and continuity | weak green fluorescence | inhibitory effect on P. digitatum growth ([2]; at 0.78 and 1.56 μM, 48 h, OD600nm): No obvious inhibitory effect |
| GHRKKWFW [PAF56, synthetic short cationic antimicrobial peptide (GHRKKWFW), literature comparator] |  |  |  |  |  |  |  |  |  |  |  |  |  |  |  |  |  |  |  | MIC [7]: 8 µM |
